Usually IC50 stands for the point on the concentration scale where inhibition reaches its midpoint. The solubility is the dissolved amount per volume that the medium holds.

Results on one compound are retold here after patent EP1118615A1, “NOVEL SALTS OF PYRIDOPYRAZINE COMPOUND AND CRYSTALS THEREOF” (FUJISAWA PHARMACEUTICAL CO., LTD., priority 1998, dated 2000).

The target in one data set is T1, human PDE4-B1 isoform (Homo sapiens, UniProt Q07343).
T1 construct: made in house; host or cells: CHO cells
T1 sequence (Q07343 whole entry, canonical isoform): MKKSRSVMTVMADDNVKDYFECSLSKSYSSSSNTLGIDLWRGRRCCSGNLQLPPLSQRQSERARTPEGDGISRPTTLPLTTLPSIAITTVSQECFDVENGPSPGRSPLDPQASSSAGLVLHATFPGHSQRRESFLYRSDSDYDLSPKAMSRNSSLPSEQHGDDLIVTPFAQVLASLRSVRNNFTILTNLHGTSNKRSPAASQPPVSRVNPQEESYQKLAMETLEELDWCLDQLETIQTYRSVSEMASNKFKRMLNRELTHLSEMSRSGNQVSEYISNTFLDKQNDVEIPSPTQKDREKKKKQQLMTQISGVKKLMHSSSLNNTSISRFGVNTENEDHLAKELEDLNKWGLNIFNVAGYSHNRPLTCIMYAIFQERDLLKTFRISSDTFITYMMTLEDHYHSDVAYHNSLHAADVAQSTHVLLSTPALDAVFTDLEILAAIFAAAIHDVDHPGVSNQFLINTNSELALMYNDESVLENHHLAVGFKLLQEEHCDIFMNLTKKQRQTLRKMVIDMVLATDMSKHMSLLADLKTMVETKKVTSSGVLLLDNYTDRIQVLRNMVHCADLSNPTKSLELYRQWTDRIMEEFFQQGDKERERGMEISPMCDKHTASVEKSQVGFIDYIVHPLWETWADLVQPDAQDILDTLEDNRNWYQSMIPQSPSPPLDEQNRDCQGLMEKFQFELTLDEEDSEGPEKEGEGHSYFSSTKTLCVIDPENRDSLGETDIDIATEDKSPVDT
In words: (A1) PDE-IV inhibitory activity, crude enzyme from CHO cells expressing the cDNA. The class given is biochemical. The protocol: (A1) PDE-IV inhibitory activity [Method] A crude enzyme was prepared from the cells (CHO cells) to which the cDNA for human PDE4-B1 isoform had been introduced for expression of the protein and the PDE4 inhibitory activity of the compound (I) of this invention was determined.

Data set [1] can be described thus: (A3) Anti-CD3/CD28 antibody-stimulated cytokine production inhibitory activity in PBMC, ELISA: TNF γ. The data set is classed as cell-based. Particulars: Homo sapiens, anti-CD3 and anti-CD28 antibodies, 24-hr culture supernatant. How it is done:
(A3) Anti-CD3/CD28 antibody-stimulated TNF α production inhibitory activity in human peripheral blood monocytes (PBMC)
[Method] Monocytes isolated from healthy adult male volunteers were cultured and stimulated with anti-CD3 and anti-CD28 antibodies and the amounts of TNF, INF, 1L-2, IL-4 and IL-10 in the 24-hr culture supernatant were determined by ELISA.
Background: In an ELISA, binding on a coated surface is turned into a signal by an enzyme label.

For data set [2], the system named is P. acnes/LPS-induced mouse hepatitis model. In words: (B4) P. acnes/LPS-induced mouse hepatitis model. The class given is in vivo, ICR mice. The following applies: oral, 9 hours after administration of the drug. How it is done: (B4) P. acnes/LPS-induced mouse hepatitis model
[Method] Propionibacterium acnes (P. acnes) killed by heat treatment was lyophilized and used in the experiment. To 7-week-old male ICR mice, either saline or P. acnes, 0.6 mg/0.2 ml/mouse, was administered intravenously. After 7 days, the drug or the solvent vehicle was administered orally in predetermined doses to the animals deprived of food for 20 hours. At. 9 hours after administration of the drug, the blood was drawn and the liver-derived enzymes (ALT and AST) in plasma were assayed.

A further data set is described as follows: Stability in solid state. The data set is classed as physicochemical. Also on record: Water content: unit not given here. From the text: The crystallinity of hydrochloride was decreased when it was mixed with ethanol.
In the study on polymorphism of compound (I), six kinds of polymorphs (A01, A09, A16, A20, A30 and A43 crystals) were found. For each of those polymorphs, hygroscopicity, stability in solid state, solubility and changes in crystallinity on compounding with various solvents were studied. However, the A30 crystal was not studied since it contains ethanol.
(2) Stability in solid state

The next data set can be described thus: physchem. Particulars: thermodynamic from solid.

For the compound `CS(=O)(=O)O.O.O.O=C(Nc1cccc(-n2c(=O)c(Cc3cccnc3)nc3cccnc32)c1)c1cc(Cl)cc(Cl)c1` [Example 2, 4-(3-(3,5-dichlorobenzoylamino)phenyl)-2-(3-pyridyl)methyl-3-oxo-3,4-dihydropyrido[2,3-b]pyrazine methanesulfonate dihydrate], the values for the IC50 (on human PDE4-B1 isoform; in data set [1]) were 26 nM and 57.3 nM, respectively. In addition, the “elevation of blood ALT” value in data set [2] is given as “significantly inhibited”. Also, the “elevation of blood AST” value in data set [2] is on record as “significantly inhibited”. The “% Residue” value amounted to 101.6% in “Stability in solid state” (70°C, 75% RH, 9 days); 100.3% in “Stability in solid state” (70°C, 9 days); 100.0% in “Stability in solid state” (Initial). Also, the Appearance result in the data set “Stability in solid state” (70°C, 75% RH, 9 days) is “Pale yellowish white crystalline powder”; in the data set “Stability in solid state” (70°C, 9 days) it was “Pale yellowish white crystalline powder”; in “Stability in solid state” (Initial), “Pale yellowish white white crystalline powder”. For the same compound, the Crystal form entry is “Unchanged” in the data set “Stability in solid state” (70°C, 75% RH, 9 days) and “Unchanged” in “Stability in solid state” (70°C, 9 days). For the same compound, the Water content in the data set “Stability in solid state” (70°C, 75% RH, 9 days) worked out at 5.09; in “Stability in solid state” (70°C, 9 days), 1.68; in the data set “Stability in solid state” (Initial), 1.75. In addition, the “change in crystal form” value in “Stability in solid state” (heat and humidity, summary of Table 3) is on record as “no change”. Besides, the “chemical stability against heat and humidity” value in the data set “Stability in solid state” (summary of Table 3) was “chemically stable”. Moreover, the solubility at 30 min worked out at 64.3 µg/mL in “physchem” (saline or isotonic) and 887 µg/mL in the data set “physchem” (water).
